Measured values published in paper PMC5678585, “Screening a protein kinase inhibitor library against Plasmodium falciparum” (Malaria Journal, 2017).
Like-named read-outs stand apart in the source and are kept apart here. Blank lines part the entries; values can stand above or below the molecule they belong to.

Columns and labels:
[1] = tested on: normal diploid human fibroblasts (MRC-5 pd30); assay: in vitro; format: cell-based
Method: (§1) Cells were plated and incubated overnight to allow them to adhere as monolayers. A working stock of each test compound was transferred to an intermediate 384-well plate and pre-diluted with minimum essential media (MEM). The pre-diluted stocks were then transferred onto the cell monolayers, and the plates were incubated for 68 h. Resazurin, to a final concentration of 50 μM was added to each well, after which plates were incubated for a further 3 h and measured for fluorescence (λ ex = 528 nm, λ em = 590 nm).
(§2) All data were processed using IDBS ActivityBase. […] The formula used to calculate Z’ is 1-3×(StDev_high+StDev_low)/ABS(Mean_high-Mean_low) .
(§3) All EC50 Curve fitting was undertaken using XLFit version 4.2 using Model 205 with the following 4 parametric equation: y=A+B-A/1+[…], where A = % inhibition at bottom, B = % inhibition at top, C = EC50, D = slope, x = inhibitor concentration and y = % inhibition.

[2] = tested on: Plasmodium falciparum 3D7; assay: microbe, parasite or virus in culture
Method: Growth inhibition was quantified using a fluorescence assay utilizing the binding of SYBR Green I to double stranded DNA, which emits a fluorescent signal at 528 nm after excitation at 485 nm. The SYBR Green assay system was adapted to maximize robustness and to align with available automation systems. The Prestwick Library then used as a pilot screen to validate the performance of the optimized assay. […] Single point screens were carried out, and the potency of compounds of interest was determined in duplicate on two independent occasions. A 96-well [^3H]-Hypoxanthine incorporation assay was also developed as a secondary assay in order to validate key compounds from each hit series in an orthogonal platform.
as §2
Two independent assays were run.

Plasmodium falciparum = assay: [3H]-Hypoxanthine incorporation assay (orthogonal, radiometric); format: cell-based
Method: Cultures of 3D7, a P. falciparum chloriquine sensitive reference strain, were maintained in a 5% suspension of A+ human red blood cells (obtained from East of Scotland Blood Transfusion Service, Ninewells Hospital, Dundee, UK) cultured in RPMI 1640 medium (pH 7.3) supplemented with 0.5% Albumax II (Gibco Life Technologies, San Diego, CA, USA), 12 mM sodium bicarbonate, 0.2 mM hypoxanthine, and 20 mg/l gentamicin at 37 °C, in a humidified atmosphere of 1% O2, 3% CO2 with a balance of nitrogen. Growth inhibition was quantified using a fluorescence assay utilizing the binding of SYBR Green I to double stranded DNA, which emits a fluorescent signal at 528 nm after excitation at 485 nm. The SYBR Green assay system was adapted to maximize robustness and to align with available automation systems. The Prestwick Library then used as a pilot screen to validate the performance of the optimized assay. […] Single point screens were carried out, and the potency of compounds of interest was determined in duplicate on two independent occasions. A 96-well [^3H]-Hypoxanthine incorporation assay was also developed as a secondary assay in order to validate key compounds from each hit series in an orthogonal platform.
The traditionally used [^3H]-hypoxanthine incorporation assay is labour intensive, low throughput and requires the use of radio-labelled hypoxanthine.

[3] = tested on: normal diploid human fibroblasts (MRC-5 pd30); settings: read-out: MRC5 EC50, cited from earlier work
[4] = tested on: Plasmodium falciparum 3D7; settings: Table 7, MMV04 SAR; data reported previously ref 24, 25; read-out: P. fal. EC50; cited from earlier work
in vitro = format: cell-based; settings: human, MRC-5 pd30 normal diploid fibroblasts (monolayers); Table 8, MMV03 SAR; read-out: MRC5 EC50
Method: as §1, §2, §3

[5] = Table 4, primary hits of kinase library, read-out: EC50 MRC5 cells
[6] = Table 6, MMV02 SAR, read-out: MRC5 EC50
[7] = read-out: EC50 Fluorescent (SYBR Green), C.I. 95%, n = 4
[8] = read-out: EC50 P. falciparum, Table 4, primary hits of kinase library
[9] = read-out: P. fal. EC50, Table 6, MMV02 SAR
[10] = C.I. 95%, n = 2, read-out: EC50 Radiometric ([3H]-hypoxanthine)
[11] = Table 8, MMV03 SAR, read-out: MRC5 EC50
[12] = read-out: P. fal. EC50, Table 8, MMV03 SAR
[13] = Table 7, MMV04 SAR, read-out: MRC5 EC50
[14] = read-out: P. fal. EC50, Table 7, MMV04 SAR
[15] = Plasmodium falciparum, 3D7, read-out: P. fal. EC50

- EC50 [1, 6]: 6 µM
- EC50 [2, 7]: 0.23 ± 0.04 µM
- EC50 [2, 8]: 0.2 µM
- EC50 [2, 9]: 0.2 µM
- EC50 (Plasmodium falciparum; [10]): 0.06 ± 0.07 µM
SMILES: Fc1ccc(-c2cc(Nc3ccncc3)nc(-c3ccccc3)n2)cc1 [Compound A0002]
- EC50 [1, 5]: 6 µM

- EC50 [1, 11]: > 50 µM
- LLE (ligand-lipophilicity efficiency) ([2]; Table 8, MMV03 SAR): 3.2
- EC50 [2, 7]: 0.59 ± 0.12 µM
- EC50 [2, 8]: 0.6 µM
- EC50 [2, 12]: 0.3 µM
- EC50 (Plasmodium falciparum; [10]): 0.15 ± 0.25 µM
SMILES: O=C(Nc1cccnc1)c1cn(-c2ccccc2)nc1-c1cccs1 [Compound A0003]
- EC50 [1, 5]: > 15 µM

- EC50 [1, 13]: > 15 µM
- EC50 [2, 7]: 0.7 ± 0.07 µM
- EC50 [2, 8]: 0.7 µM
- EC50 [2, 14]: 0.7 µM
- EC50 (Plasmodium falciparum; [10]): 0.41 ± 0.47 µM
SMILES: O=C(Nc1cccnc1)c1cc(-c2cccnc2)nc2ccc(Br)cc12 [Compound A0004]
- EC50 [1, 5]: > 15 µM

SMILES: Fc1ccccc1-c1cc(Nc2ccncc2)nc(-c2ccccc2)n1 [Compound A0021]
- EC50 ([3]; Table 6, MMV02 SAR, data reported previously ref 23): > 50 µM

- EC50 [1, 6]: 11 µM
- EC50 [2, 9]: 2.3 µM
SMILES: FC(F)(F)Oc1ccc(Nc2cc(-c3cccc(C(F)(F)F)c3)nc(-c3ccccc3)n2)cc1 [Compound A0022]
- activity against P. falciparum relative to A0002 ([2]; MMV02 series): tenfold less active

- EC50 [1, 13]: 18 µM
- EC50 [2, 14]: 0.2 µM
SMILES: CCOC(=O)c1ccc(NC(=O)c2cc(-c3cccnc3)nc3ccc(Cl)cc23)cc1 [Compound A0024]

SMILES: Cc1ccc(-c2cc(C(=O)Nc3cccnc3)c3cc(Br)ccc3n2)cc1 [Compound A0031]
- EC50 ([3]; Table 7, MMV04 SAR, data reported previously ref 24, 25): 20 µM
- EC50 [4]: 0.12 µM
- activity against P. falciparum relative to A0004 ([2]; MMV04 series): fivefold more active

- EC50 [1, 11]: 21 µM
- LLE (ligand-lipophilicity efficiency) ([2]; Table 8, MMV03 SAR): 2.9
- EC50 [2, 12]: 0.5 µM
SMILES: O=C(Nc1nc2ccccc2[nH]1)c1cn(-c2ccccc2)nc1-c1cccnc1 [Compound A0032]

- EC50 [1, 11]: 39 µM
- LLE (ligand-lipophilicity efficiency) ([2]; Table 8, MMV03 SAR): 2.9
- EC50 [2, 12]: 0.7 µM
SMILES: O=C(Nc1ccncc1)c1cn(-c2ccccc2)nc1-c1cccs1 [Compound A0033]

- EC50 at 68 h (in vitro): 13 µM
- EC50 [2, 15]: 0.8 µM
- LLE (ligand-lipophilicity efficiency) ([2]; Table 8, MMV03 SAR): 2
SMILES: O=C(Nc1nc2ccccc2[nH]1)c1cn(-c2ccccc2)nc1-c1cccs1 [Compound A0034]

- EC50 [1, 11]: 50 µM
- LLE (ligand-lipophilicity efficiency) ([2]; Table 8, MMV03 SAR): 1.1
- EC50 [2, 12]: 18 µM
SMILES: CC(C)CCNC(=O)c1cn(-c2ccccc2)nc1-c1cccs1 [Compound A0036]

- EC50 [1, 11]: 18 µM
- LLE (ligand-lipophilicity efficiency) ([2]; Table 8, MMV03 SAR): 2.7
- EC50 [2, 12]: 13 µM
SMILES: CCN(CC)CCNC(=O)c1cn(-c2ccccc2)nc1-c1cccs1 [Compound A0037]

- EC50 [1, 11]: 18 µM
- LLE (ligand-lipophilicity efficiency) ([2]; Table 8, MMV03 SAR): 3.2
- EC50 [2, 12]: 2 µM
SMILES: O=C(Nc1cccnc1)c1cn(-c2ccccc2)nc1-c1cccnc1 [Compound A0038]

- EC50 at 68 h (in vitro): 50 µM
- EC50 [2, 15]: 21 µM
- LLE (ligand-lipophilicity efficiency) ([2]; Table 8, MMV03 SAR): 2.1
SMILES: CC(C)c1nn(-c2ccccc2)cc1C(=O)Nc1cccnc1 [Compound A0039]

- EC50 at 68 h (in vitro): 50 µM
- EC50 [2, 15]: 10 µM
- LLE (ligand-lipophilicity efficiency) ([2]; Table 8, MMV03 SAR): 2.8
SMILES: Cc1nn(-c2ccccc2)cc1C(=O)Nc1cccnc1 [Compound A0040]

- EC50 [1, 11]: 15 µM
- LLE (ligand-lipophilicity efficiency) ([2]; Table 8, MMV03 SAR): 3.2
- EC50 [2, 12]: 0.4 µM
SMILES: N#Cc1ccc(-n2cc(C(=O)Nc3nc4ccccc4[nH]3)c(-c3cccnc3)n2)cc1 [Compound A0041]

- EC50 [1, 11]: 14 µM
- LLE (ligand-lipophilicity efficiency) ([2]; Table 8, MMV03 SAR): 2.8
- EC50 [2, 12]: 0.6 µM
SMILES: O=C(Nc1nc2ccccc2[nH]1)c1cn(-c2ccc(F)cc2)nc1-c1cccnc1 [Compound A0042]

- EC50 at 68 h (in vitro): > 50 µM
- EC50 [2, 15]: 14 µM
- LLE (ligand-lipophilicity efficiency) ([2]; Table 8, MMV03 SAR): 1.2
SMILES: CC(C)(C)n1cc(C(=O)Nc2nc3ccccc3[nH]2)c(-c2cccnc2)n1 [Compound A0043]

- EC50 at 68 h (in vitro): > 50 µM
- EC50 [2, 15]: > 50 µM
- LLE (ligand-lipophilicity efficiency) ([2]; Table 8, MMV03 SAR): 2
SMILES: Cn1cc(C(=O)Nc2cccnc2)c(-c2cccs2)n1 [Compound A0044]

- EC50 [1, 13]: > 50 µM
- EC50 [2, 14]: 0.74 µM
SMILES: COc1cc(NC(=O)c2cc(-c3cccnc3)nc3ccc(Br)cc23)cc(OC)c1 [Compound A0410]

- EC50 [1, 13]: > 50 µM
- EC50 [2, 14]: 0.38 µM
SMILES: O=C(Nc1cccnc1)c1cc(-c2cccnc2)nc2ccc(Cl)cc12 [Compound A0421]

- EC50 ([2]; Plasmodium falciparum, 3D7): 0.048 ± 0.004 µM
- EC50 (Plasmodium falciparum; Plasmodium falciparum, [3H]-hypoxanthine incorporation assay, read-out: EC50): 0.007 to 0.01 µM
SMILES: OC(c1cc(C(F)(F)F)nc2c(C(F)(F)F)cccc12)C1CCCCN1 (stereo not shown) [Mefloquine, reference compound]
